Changes are numbered by the printed parent chain. Some results are limits rather than exact numbers.

Test [1] has as its system U87MG pLVX-IDH2 R140Q-neo cells. In words: U87MG pLVX-IDH2 R140Q-neo cell based assay, 2-HG in media by LC-MS at 48 hours. The note with it: Homo sapiens, U-87 MG. The procedure, abridged:
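2-HG secreted into the medium was measured by LC-MS after 48 h of compound treatment (0.2% DMSO final) of U87MG pLVX-IDH2 R140Q-neo cells in DMEM/10% FBS. The same wells were assayed at 72 h by CellTiter-Glo luminescence for effects on growth.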

In test [2] the target is T1, IDH2 R140Q (Homo sapiens, UniProt P48735, R140Q).
T1 sequence (P48735 40-452 R140Q): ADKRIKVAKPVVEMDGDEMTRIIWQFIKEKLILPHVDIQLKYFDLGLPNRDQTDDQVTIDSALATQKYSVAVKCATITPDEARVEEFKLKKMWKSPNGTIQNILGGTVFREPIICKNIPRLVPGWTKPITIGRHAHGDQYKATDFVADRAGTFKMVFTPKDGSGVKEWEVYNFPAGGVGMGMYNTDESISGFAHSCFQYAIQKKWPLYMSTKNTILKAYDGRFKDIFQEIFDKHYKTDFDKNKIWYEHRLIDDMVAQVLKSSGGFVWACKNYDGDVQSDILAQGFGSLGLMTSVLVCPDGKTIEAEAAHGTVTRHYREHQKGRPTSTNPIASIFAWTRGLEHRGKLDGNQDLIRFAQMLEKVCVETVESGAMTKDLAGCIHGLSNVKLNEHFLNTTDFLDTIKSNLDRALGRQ
Kind of test: IDH2 R140Q enzymatic assay (cofactor depletion, similar format). In kind it is biochemical. The note with it: read-out: Enz R140Q.

Test [3] has as its target T2, IDH2 R172K (Homo sapiens, UniProt P48735, R172K).
T2 sequence (P48735 40-452 R172K): T1 sequence (P48735 40-452 R140Q) with Q101R, R133K
Kind of test: IDH2 R172K enzymatic assay (NADPH cofactor depletion, diaphorase/resazurin readout). The class given is biochemical. The settings on record: read-out: Enz R172K. The procedure, abridged: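 Residual NADPH is read out as resorufin fluorescence after quenching with 36 μg/ml diaphorase and 60 μM resazurin in stop mix. The stop follows a 1 h room-temperature reaction started by a substrate mix of NADPH (50 μM) and α-KG (6.3 mM), with compound preincubated with enzyme for 1 h beforehand.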
In general terms: The colour change of resazurin is a common sign of viable cells or microbes.

In the case of `CC(C)Nc1nc(Nc2ccnc(C(F)(F)F)c2)nc(-c2cccc(CN)c2)n1` [Compound 654, 6-(3-(aminomethyl)phenyl)-N2-isopropyl-N4-(2-(trifluoromethyl)pyridin-4-yl)-1,3,5-triazine-2,4-diamine], the IC50 in test [1] was below 0.1 µM; in test [2] it was 0.1 to 1 µM; in test [3], above 10 µM.

Take `COCC(C)Nc1nc(Nc2ccnc(C(F)(F)F)c2)nc(-c2cccc(Cl)n2)n1` (stereo not drawn) [Compound 499, 6-(6-Chloro-pyridin-2-yl)-N-(2-methoxy-1-methyl-ethyl)-N′-(2-trifluoromethyl-pyridin-4-yl)-[1,3,5]triazine-2,4-diamine]: the IC50 in test [1] was below 0.1 µM; in test [2] it was 0.1 to 1 µM; in test [3] it was below 0.1 µM.

As for `Fc1cncc(Nc2nc(NC3[C@H]4COC[C@@H]34)nc(-c3ccccc3F)n2)c1` (stereo partly drawn) [Compound 638, 6-(2-Fluoro-phenyl)-N-(5-fluoro-pyridin-3-yl)-N′-(3-oxa-bicyclo[3.1.0]hex-6-yl)-[1,3,5]triazine-2,4-diamine], the IC50 was below 0.1 µM in test [1], 0.1 to 1 µM in test [2] and 0.1 to 1 µM in test [3].

With `CS(=O)(=O)c1cc(Cl)cc(Nc2nc(NCC3CC3)nc(-c3cccc(C(F)(F)F)n3)n2)c1` [Compound 599, N2-(3-chloro-5-(methylsulfonyl)phenyl)-N4-(cyclopropylmethyl)-6-(6-(trifluoromethyl)pyridin-2-yl)-1,3,5-triazine-2,4-diamine], the values for the IC50 in test [1], in test [2] and in test [3] were below 0.1 µM, 0.1 to 1 µM and below 0.1 µM, respectively.

Regarding `CC(C)Nc1nc(Nc2cccnc2)nc(-c2ccccc2)n1` [Compound 154], the values for the IC50 in test [1], in test [2] and in test [3] were 0.1 to 1 µM, below 0.1 µM and 1 to 10 µM, respectively.

As to `CC(C)Nc1nc(Nc2cc(F)cc(F)c2)nc(-c2nccc(C(F)(F)F)n2)n1` [Compound 455, N-(3,5-Difluoro-phenyl)-N′-isopropyl-6-(4-trifluoromethyl-pyrimidin-2-yl)-[1,3,5]triazine-2,4-diamine], the IC50 was below 0.1 µM in test [1], 0.1 to 1 µM in test [2] and below 0.1 µM in test [3].

For `CC(C)(O)CNc1nc(Nc2ccc(F)nc2)nc(-c2ccccc2F)n1` [Compound 622, 1-(4-(2-fluorophenyl)-6-(6-fluoropyridin-3-ylamino)-1,3,5-triazin-2-ylamino)-2-methylpropan-2-ol], the IC50 in test [1], in test [2] and in test [3] was 0.1 to 1 µM in each case.

Consider `CC(C)Nc1nc(Nc2cccc(S(=O)(=O)NCC(F)(F)F)c2)nc(-c2cccc(Cl)n2)n1` [Compound 518, 3-[4-(6-Chloro-pyridin-2-yl)-6-isopropylamino-[1,3,5]triazin-2-ylamino]-N-(2,2,2-trifluoro-ethyl)-benzenesulfonamide], for which the figures for the IC50 in test [1], in test [2] and in test [3] were below 0.1 µM, 0.1 to 1 µM and below 0.1 µM, respectively.

In the case of `CC(C)Nc1nc(Nc2cc(F)cc(F)c2)nc(-c2nccc(N)n2)n1` [Compound 458, 6-(4-Amino-pyrimidin-2-yl)-N-(3,5-difluoro-phenyl)-N′-isopropyl-[1,3,5]triazine-2,4-diamine], the IC50 in test [1] was below 0.1 µM; in test [2], 0.1 to 1 µM; in test [3], 0.1 to 1 µM.

As to `CC(C)Nc1nc(Nc2ccccc2)nc(-c2ccncc2)n1` [Compound 156], the IC50 is 0.1 to 1 µM in test [1], 0.1 to 1 µM in test [2] and 1 to 10 µM in test [3].

For `c1ccc(-c2nc(Nc3ccncc3)nc(NC3COC3)n2)cc1` [Compound 236, N^2-(oxetan-3-yl)-6-phenyl-N^4-(pyridin-4-yl)-1,3,5-triazine-2,4-diamine], the IC50 in test [1] fell in the range of 0.1 to 1 µM; in test [2], 0.1 to 1 µM; in test [3] it was 1 to 10 µM.

`Cn1nccc1Nc1nc(Nc2ccnc(C(F)(F)F)c2)nc(-c2cccc(C(F)(F)F)n2)n1` [Compound 544, N-(2-Methyl-2H-pyrazol-3-yl)-6-(6-trifluoromethyl-pyridin-2-yl)-N′-(2-trifluoromethyl-pyridin-4-yl)-[1,3,5]triazine-2,4-diamine]: the IC50 in test [1] was below 0.1 µM; in test [2], 0.1 to 1 µM; in test [3] it was 0.1 to 1 µM.

`CC(C)Nc1nc(Nc2cccc(S(=O)(=O)NC3CC3)c2)nc(-c2ccccc2)n1` [Compound 341, N-cyclopropyl-3-(4-(isopropylamino)-6-phenyl-1,3,5-triazin-2-ylamino)benzenesulfonamide]: the IC50 in test [1] was below 0.1 µM; in test [2] it was below 0.1 µM; in test [3], 0.1 to 1 µM.

The values above are taken from patent US9512107B2, “Therapeutically active compositions and their methods of use” (Agios Pharmaceuticals, Inc., priority 2012, dated 2016).
